Measured values: patent publication US20030049597A1, “Chimeric fluorescent enzymes and uses thereof” (priority 2001, published 2003)
Read-outs that look alike come from different tables or passages of the source.

What was measured:
PgpGFP [1] = target: T1, PgpGFP (Homo sapiens, UniProt P08183); test: Drug mediated microtubule depolymerization in PgpGFP transfected HeLa cells (anti-b-tubulin immunofluorescence); conditions: for effect of PgpGFP expression on sensitivity of cells to the drug: microtubule depolymerization, 30 min
Method: Cells were plated on 18 mm glass coverslips placed in 12-well dishes. […] For tubulin staining, cells were incubated for 30 minutes in the presence of indicated concentrations of vincristine (Calbiochem), colchicine (Calbiochem) or nocodazole (Sigma). Cells were then fixed, permeabilized, and labeled with 2 μg/ml Cy3-labeled anti-b-tubulin antibody, clone TUB 2.1 (Sigma).
We used a functional assay to quantify the effect of PgpGFP expression on the cytosolic activity of chemotherapeutics. Certain chemotherapeutics, such as colchicine, vincristine and nocodazole, depolymerize microtubules. The state of a cell's microtubules after being treated with these drugs is a measurement of the cellular concentration of the drug. Thus, we examined the microtubules using immunofluorescence against b-tubulin after drug treatment.

PgpGFP [2] = target: T1, PgpGFP
Method: (§1) HeLa cells (ATCC CCL-2) were cultured as per ATCC recommendations.
(§2) Epifluorescence microscopy was done on an inverted IX-70 microscope (Olympus America, Melville, N.Y.). […] Excitation was provided using a 150 Watt Xenon arc lamp (OptiQuip, Beaver Falls, Pa.). Excitation and emission filters were selected using filter wheels (Ludl Electronic Products, Hawthorne, N.Y.). All filters were from Chroma Technology (Brattleboro, Vt.).
(§3) Confocal microscopy was done on an upright Axiplan 2 microscope with a LSM 510 confocal attachment (Carl Zeiss, Thomwood, N.Y.). Excitation was provided an Argon/Krypton laser with lines at 488 nm and 568 nm and a Helium/Neon laser at 633 nm. The following laser lines and emission filters were used for confocal microscopy: GFP λex=488 nm, λem=500-530 nm, Texas Red, Cy3, TMRE: λex=568 nm, λem=580 nm LP, Fura Red, daunorubicin: λex=488 nm, λem=580 nm LP.
(§4) All fluorescent dyes were from Molecular Probes. Daunorubicin was from Calbiochem. Cells were incubated with the indicated drug or dye for the indicated amount of time in Opti-MEM without phenol red and with 10 mM Hepes (Life Technologies, Rockville, Md.) in a 5% CO2, 37° C. incubator prior to observation.

PgpGFP [3] = target: T1, PgpGFP; test: Accumulation of fluorescent drugs and dyes in PgpGFP transfected HeLa cells (fluorescence microscopy); conditions: 30 min incubation, 1 μM daunorubicin (confocal), 200 nM Ho342 (epifluorescence)
Method: as §1, §2, §3, §4

PgpCFP = PgpCFP (Homo sapiens, UniProt P08183); test: Accumulation of AM ester dyes in PgpCFP transfected cells (fluorescence microscopy); conditions: dyes marked (CFP)
Chain of PgpCFP (P08183 whole entry): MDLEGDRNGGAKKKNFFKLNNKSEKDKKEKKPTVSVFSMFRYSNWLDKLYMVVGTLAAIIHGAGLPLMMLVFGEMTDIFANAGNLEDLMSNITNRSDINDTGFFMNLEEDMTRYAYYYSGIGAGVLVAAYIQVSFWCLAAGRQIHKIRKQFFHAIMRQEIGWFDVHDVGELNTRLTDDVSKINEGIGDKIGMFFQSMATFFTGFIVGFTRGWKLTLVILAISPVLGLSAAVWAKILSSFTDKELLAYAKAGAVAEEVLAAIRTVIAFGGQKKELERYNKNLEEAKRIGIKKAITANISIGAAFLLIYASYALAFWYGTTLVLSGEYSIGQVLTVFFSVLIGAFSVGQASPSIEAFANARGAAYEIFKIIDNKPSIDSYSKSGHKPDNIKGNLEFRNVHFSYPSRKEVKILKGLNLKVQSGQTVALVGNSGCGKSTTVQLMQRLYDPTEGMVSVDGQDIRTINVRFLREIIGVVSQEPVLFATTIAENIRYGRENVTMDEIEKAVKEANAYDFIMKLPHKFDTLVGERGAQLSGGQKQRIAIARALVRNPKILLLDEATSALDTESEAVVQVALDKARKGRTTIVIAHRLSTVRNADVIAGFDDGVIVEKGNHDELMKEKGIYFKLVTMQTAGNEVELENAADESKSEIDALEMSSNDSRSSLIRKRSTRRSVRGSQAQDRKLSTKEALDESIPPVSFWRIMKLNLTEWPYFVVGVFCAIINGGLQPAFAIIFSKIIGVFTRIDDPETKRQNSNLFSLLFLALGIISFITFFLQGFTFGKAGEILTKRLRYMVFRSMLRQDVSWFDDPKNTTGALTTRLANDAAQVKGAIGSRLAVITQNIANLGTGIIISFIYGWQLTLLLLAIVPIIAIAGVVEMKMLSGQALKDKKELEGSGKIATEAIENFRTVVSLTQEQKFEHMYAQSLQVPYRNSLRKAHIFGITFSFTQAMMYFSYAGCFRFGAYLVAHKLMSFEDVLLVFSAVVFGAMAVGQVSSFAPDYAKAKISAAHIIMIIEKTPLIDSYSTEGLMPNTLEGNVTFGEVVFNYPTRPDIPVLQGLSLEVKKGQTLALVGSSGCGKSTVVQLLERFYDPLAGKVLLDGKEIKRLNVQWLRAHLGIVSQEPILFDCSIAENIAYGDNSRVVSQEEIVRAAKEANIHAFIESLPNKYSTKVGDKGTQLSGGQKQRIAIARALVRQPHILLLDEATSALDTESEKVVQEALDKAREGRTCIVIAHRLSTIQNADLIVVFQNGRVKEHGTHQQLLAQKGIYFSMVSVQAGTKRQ

T1 sequence (P08183 whole entry): as above

With `COc1cc2c(c(OC)c1OC)-c1ccc(OC)c(=O)cc1[C@@H](NC(C)=O)CC2` [Colchicine, colchicine] the “Fold resistance (high level PgpGFP expression, drug mediated microtubule depolymerization)” value (“Fold resistance” below) (PgpGFP [1]; high level PgpGFP expression) was 5-25 fold and the “effect of PgpGFP expression on sensitivity of cells to the drug” value (PgpGFP [1]) was “decreased the sensitivity”.
With `CC(=O)OCOC(=O)CN(CC(=O)OCOC(C)=O)c1ccc(C)cc1OCCOc1cc2cc(C=C3NC(=S)NC3=O)oc2cc1N(CC(=O)OCOC(C)=O)CC(=O)OCOC(C)=O` [FURA Red AM] the “Effects on fluorescence (effect of PgpGFP expression on accumulation of AM esters)” value (PgpGFP [2]) was greater than 10 Fold.
In the case of `CC(=O)OCOC(=O)CN(CC(=O)OCOC(C)=O)c1ccc(C)cc1OCCOc1cc2cc(-c3ncc(C(=O)OCOC(C)=O)o3)oc2cc1N(CC(=O)OCOC(C)=O)CC(=O)OCOC(C)=O` [FURA-2 AM], the “Effects on fluorescence (effect of PgpGFP expression on accumulation of AM esters)” value (PgpGFP [2]) is reported as greater than 10 Fold.
For `CCOc1ccc(-c2nc3ccc(-c4nc5ccc(N6CCN(C)CC6)cc5[nH]4)cc3[nH]2)cc1` [Ho342, Hoechst 33342], the “fluorescence lower in PgpGFP expressing cell compared to Pgp negative cell” value (PgpGFP [3]) was 3 fold.
For `COC(=O)Nc1nc2ccc(C(=O)c3cccs3)cc2[nH]1` [Nocodazole, nocodazole], the “Fold resistance” value (PgpGFP [1]; high level PgpGFP expression) was “None” and the “effect of PgpGFP expression on sensitivity of cells to the drug” value (PgpGFP [1]) was “no effect”.
In the case of `CC[C@]1(O)C[C@H]2CN(CCc3c([nH]c4ccccc34)[C@@](C(=O)OC)(c3cc4c(cc3OC)N(C=O)[C@H]3[C@@](O)(C(=O)OC)[C@H](OC(C)=O)[C@]5(CC)C=CCN6CC[C@]43[C@@H]65)C2)C1` [Vincristine, vincristine], the “Fold resistance” value (PgpGFP [1]) is reported as 25-125 fold.
With Calcein AM the “Effects on fluorescence (effect of PgpCFP expression on accumulation of AM esters)” value (PgpCFP) was greater than 10 Fold.
